Structures can show the parent of a compound that is named as a salt.
Experiments:
[1] = biological target: T1, α1D adrenoceptor (aorta) (Rattus norvegicus, UniProt P23944); assay: In vitro functional assay, isolated aorta, norepinephrine contraction; assay type: cell-based; details: read-out: α Adrenoceptor Subtype (pKB) α1D (converted)
T1 construct: Isolated tissues were mounted in organ bath containing Krebs Henseleit buffer; from tissue; host or cells: isolated rat aorta
T1 sequence (P23944 1-561): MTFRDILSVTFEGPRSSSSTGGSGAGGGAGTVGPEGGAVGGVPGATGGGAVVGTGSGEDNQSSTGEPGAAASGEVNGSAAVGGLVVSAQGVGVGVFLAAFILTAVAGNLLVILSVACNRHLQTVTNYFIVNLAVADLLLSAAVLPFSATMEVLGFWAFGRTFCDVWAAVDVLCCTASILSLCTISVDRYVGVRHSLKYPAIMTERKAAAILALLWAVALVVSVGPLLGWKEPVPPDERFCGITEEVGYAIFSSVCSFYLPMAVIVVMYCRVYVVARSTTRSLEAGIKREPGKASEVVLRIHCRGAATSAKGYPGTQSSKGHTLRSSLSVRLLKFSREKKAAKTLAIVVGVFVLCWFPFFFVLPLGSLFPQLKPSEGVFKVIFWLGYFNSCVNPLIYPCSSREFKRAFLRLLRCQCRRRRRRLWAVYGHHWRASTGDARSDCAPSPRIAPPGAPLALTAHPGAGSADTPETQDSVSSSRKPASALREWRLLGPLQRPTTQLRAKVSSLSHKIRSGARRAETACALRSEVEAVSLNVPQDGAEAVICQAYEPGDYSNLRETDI
Source text: (§1) In order to study selectivity of action of these compounds towards different a-adrenoceptor subtypes, the ability of these compounds to antagonise (α1D) prostate (α1A) and spleen (α1B) was studied. Aorta and spleen tissues were isolated from urethane anaesthetized (1.5 g/kg) male wister rats. Isolated tissues were mounted in organ bath containing Krebs Henseleit buffer of the following composition (mM): NaCl 118; KCl 4.7; CaCl2 2.5; MgSO4 7H2O 1.2; NaHCO3 25; KH2PO4 1.2; glucose 11.5. Buffer was maintained at 37° C. and aereated with a mixture of 95% O2 and 5% CO2. A resting tension of 2 g (aorta) or 1 g (spleen and prostate) was applied to tissues. Contractile response was monitored using a force displacement transducer and recorded on chart recorders. Tissues were allowed to equilibrate for 2 hours. At the end of equilibration period, concentration response curves to norepinephrine (aorta) and phenylepinephrine (spleen and prostate) were obtained in the absence and presence of tested compound (at concentration of […]). Antagonist affinity was calculated and expressed as pKB values in Table II.

[2] = biological target: T2, α1B adrenoceptor (Rattus norvegicus, UniProt P15823); assay: Radioligand binding, [3H] prazosin displacement, rat liver membranes; details: read-out: Affinity (Ki) α1B (Rat Liver)
T2 construct: from tissue; host or cells: rat liver membranes
T2 sequence (P15823 1-515): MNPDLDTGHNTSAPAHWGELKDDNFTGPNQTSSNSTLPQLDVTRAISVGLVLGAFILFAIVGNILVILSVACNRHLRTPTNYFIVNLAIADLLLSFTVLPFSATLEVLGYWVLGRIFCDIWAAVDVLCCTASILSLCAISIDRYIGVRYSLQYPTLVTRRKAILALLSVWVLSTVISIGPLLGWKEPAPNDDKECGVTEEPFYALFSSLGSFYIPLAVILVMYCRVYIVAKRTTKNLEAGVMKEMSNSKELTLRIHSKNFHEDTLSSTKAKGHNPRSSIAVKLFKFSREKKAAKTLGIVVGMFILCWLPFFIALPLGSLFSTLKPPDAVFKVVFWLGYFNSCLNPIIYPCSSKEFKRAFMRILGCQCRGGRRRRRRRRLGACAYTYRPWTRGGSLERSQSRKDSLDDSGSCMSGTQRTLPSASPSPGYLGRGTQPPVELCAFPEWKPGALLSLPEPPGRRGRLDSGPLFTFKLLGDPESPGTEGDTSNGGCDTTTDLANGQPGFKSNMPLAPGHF
Procedure, shortened: (§2)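 Rat membranes (submaxillary for α1A, liver for α1B; 150-250 μg protein) incubated with [3H]prazosin and compound in Tris 50 mM/EDTA 5 mM pH 7.4, 1 h at 24-25° C. Nonspecific binding with 300 nM prazosin; filtration, counting; Ki via Cheng–Prusoff.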

[3] = biological target: T3, α1A adrenoceptor (prostate) (Rattus norvegicus, UniProt P43140); assay: In vitro functional assay, isolated prostate, phenylepinephrine contraction; assay type: cell-based; details: for Selectivity α1B/α1A / Selectivity α1D/α1A: functional, from pKB; for Kb: rat prostate, phenylepinephrine, read-out: α Adrenoceptor Subtype (pKB) α1A (converted)
T3 construct: from tissue; host or cells: isolated prostate tissue
T3 sequence (P43140 1-466): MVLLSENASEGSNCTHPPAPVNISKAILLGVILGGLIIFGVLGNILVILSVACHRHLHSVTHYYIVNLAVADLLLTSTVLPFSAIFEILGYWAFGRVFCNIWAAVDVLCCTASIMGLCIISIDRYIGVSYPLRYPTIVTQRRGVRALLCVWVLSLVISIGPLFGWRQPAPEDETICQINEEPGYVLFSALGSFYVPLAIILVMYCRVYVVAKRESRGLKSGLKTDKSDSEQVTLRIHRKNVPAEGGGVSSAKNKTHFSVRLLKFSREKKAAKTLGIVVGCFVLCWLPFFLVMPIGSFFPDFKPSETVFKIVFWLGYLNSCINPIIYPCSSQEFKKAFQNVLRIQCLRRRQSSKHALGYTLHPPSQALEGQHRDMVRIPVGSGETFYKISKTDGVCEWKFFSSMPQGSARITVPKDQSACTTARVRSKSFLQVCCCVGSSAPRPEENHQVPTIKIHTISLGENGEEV
Source text: as §1

[4] = biological target: T4, α1A adrenoceptor (Rattus norvegicus, UniProt P43140); assay: Radioligand binding, [3H] prazosin displacement, rat submaxillary membranes; details: for Ki: [3H] prazosin displacement, rat submaxillary membranes, read-out: Affinity (Ki) α1A (Rat Submaxillary); for α1B/α1A: ratio of binding affinities, rat liver / rat submaxillary
T4 construct: from tissue; host or cells: rat submaxillary gland membranes
T4 sequence (P43140 1-466): T3 sequence (P43140 1-466)
Procedure, shortened: as §2

[5] = biological target: T5, α1B adrenoceptor (spleen) (Rattus norvegicus, UniProt P15823); assay: In vitro functional assay, isolated spleen, phenylepinephrine contraction; assay type: cell-based; details: read-out: α Adrenoceptor Subtype (pKB) α1B (converted)
T5 construct: Isolated tissues were mounted in organ bath containing Krebs Henseleit buffer; from tissue; host or cells: isolated rat spleen
T5 sequence (P15823 1-515): T2 sequence (P15823 1-515)
Source text: as §1

SMILES	Kb [1] [nM]	Ki [2] [nM]	Selectivity α1B/α1A [3]	Selectivity α1D/α1A [3]	Kb [3] [nM]	Ki [4] [nM]	α1B/α1A [4]	Kb [5] [nM]
CC(C)Oc1ccccc1N1CCN(CCCN2C(=O)C3CCC(O)CC3C2=O)CC1 (centres unmarked) [Compound No. 20, 2-[3-{4-(2-Isopropoxyphenyl)piperazin-1-yl}propyl]-5-hydroxy-3a,4,5,6,7,7a-hexahydro-1H-isoindole-1,3(2H)-dione]	1.07	92	240	2.5	0.427	0.28	328	102
CC(C)Oc1ccc(O)cc1N1CCN(CCCN2C(=O)C3CC=CCC3C2=O)CC1.Cl (centres unmarked) [Compound No. 21, 2-[3-{4-(2-Isopropoxy-5-hydroxyphenyl)piperazin-1-yl}propyl]-3a,4,7,7a-tetrahydro-1H-isoindole-1,3(2H)-dione hydrochloride]	24.5	643	15	5.24	4.68	3.4	189	70.8
CC(C)Oc1cc([N+](=O)[O-])ccc1N1CCN(CCCN2C(=O)C3CC=CCC3C2=O)CC1 (centres unmarked) [Compound No. 25, 2-[3-{4-(2-Isopropoxy-4-nitrophenyl)piperazin-1-yllpropyl]-3a,4,7,7a-tetrahydro-1H-isoindole-1,3(2H)-dione hydrochloride]	4.27	173	22	0.93	4.57	0.86	201	100
CC(C)Oc1ccccc1N1CCN(CCCN2C(=O)C3CC(O)C(Cl)CC3C2=O)CC1.Cl (centres unmarked) [Compound No. 28, 2-[3-{4-(2-Isopropoxyphenyl)piperazin-1-yl}propyl]-5-chloro-6-hydroxy-3a,4,5,6,7,7a-hexahydro-1H-isoindole-1,3(2H)-dione hydrochloride]	1.41	41	45	1.4	0.977	0.24	171	43.7
CC(C)Oc1ccccc1N1CCN(CCCN2C(=O)C3CCCC(O)C3C2=O)CC1.Cl (centres unmarked) [Compound No. 60, 2-[3-{4-(2-Isopropoxyphenyl)piperazin-1-yl}-propyl]4-hydroxy-3a,4,5,6,7,7a-hexahydro-1H-isoindole-1,3(2H)-dione hydrochloride]	6.46	142	–	18	0.363	1.2	118	–
COc1ccccc1N1CCN(CC(O)CN2C(=O)C3CC=CCC3C2=O)CC1.Cl (centres unmarked) [compound 06, 2-[3-{4-(2-Methoxyphenyl)piperazin-1-yl}-2-hydroxypropyl]-3a,4,7,7a-tetrahydro-1H-isoindole-1,3(2H)-dione hydrochloride]	3.72	263	–	0.56	6.61	38	7	–

From US20050228180A1, “Alpha, omega-dicarboximide derivatives as useful uro-selective a1a adrenoceptor blockers” (priority 2002, published 2005)
